Reference: ChEMBL document CHEMBL5725872, “Benzofuran compounds for the treatment of hepatitis C” (2018)

Assay: HCV Replicon Luciferase Assay: To evaluate compound efficacy, titrated compounds were transferred to sterile 384-well tissue culture treated plates, and the plates were seeded with HCV replicon cells (50 μL at a density of 2.4×10^3 cells/well) in DMEM containing 4% FBS (final DMSO concentration at 0.5%). After 3 days incubation at 37° C., cells were analyzed for Renilla Luciferase activity using the EnduRen substrate (Promega cat #E6485) according to the manufacturer's directions. Briefly, the EnduRen substrate was diluted in DMEM and then added to the plates to a final concentration of 7.5 μM. The plates were incubated for at least 1 h at 37° C. then read on a Viewlux Imager (PerkinElmer) using a luminescence program. The 50% effective concentration (EC50) was calculated using the four-parameter logistic Formula noted above. To assess cytotoxicity of compounds, Cell Titer-Blue (Promega) was added to the EnduRen-containing plates and incubated for at least 4 hrs at 37° C. The fluorescence signal from each well was read using a Viewlux Imager. All CC50 values were calculated using the four-parameter logistic Formula.

SMILES | EC50 (72 h) | EC50
CNC(=O)c1c(-c2ccc(F)cc2)oc2cc(N(CCCF)S(C)(=O)=O)c(-c3cccc(C(=O)N[C@H](C)C(F)(F)F)c3)cc12 | < 100 nM | 
CNC(=O)c1c(-c2ccc(F)cc2)oc2cc(N(CCF)S(C)(=O)=O)c(-c3cccc(C(=O)N4CCC[C@H]4CO)c3)cc12 | 100 to 1000 nM | 
CNC(=O)c1c(-c2ccc(F)cc2)oc2cc(N(CCF)S(C)(=O)=O)c(-c3cccc(C(=O)NC(C)(C)C)c3)cc12 | < 100 nM | < 100 nM
CC[C@H](NC(=O)c1cccc(-c2cc3c(C(=O)NC)c(-c4ccc(F)cc4)oc3cc2N(CCF)S(C)(=O)=O)c1)C1CC1 | < 100 nM | 
CNC(=O)c1c(-c2ccc(F)cc2)oc2cc(N(CCF)S(C)(=O)=O)c(-c3cccc(C(=O)N4CC[C@H](O)C4)c3)cc12 | > 1000 nM | 
CNC(=O)c1c(-c2ccc(F)cc2)oc2cc(N(C(F)F)S(C)(=O)=O)c(-c3cccc(C(=O)O)c3)cc12 | > 10000 nM | 
CNC(=O)c1c(-c2ccc(F)cc2)oc2cc(N(CCCF)S(C)(=O)=O)c(-c3cccc(C(=O)N[C@@H](C)C(F)(F)F)c3)cc12 | < 100 nM | 
CNC(=O)c1c(-c2ccc(F)cc2)oc2cc(N(CCCF)S(C)(=O)=O)c(-c3cccc(C(=O)NC(C)(C)C)c3)cc12 | < 100 nM | < 100 nM
